Test results reported in article PMC9645344, “Serotonin-releasing agents with reduced off-target effects” (Molecular Psychiatry, 2022).
Where a name gives a salt, the structure may show the parent alone.

Experiments:
[1] = tested on: VMAT2; design: method as in PMID 25771452; conditions: racemic; cited from earlier work
[2] = tested on: extracellular 5-HT in the NAc; test: Fiber photometry with GRAB5-HT sensor in the NAc of freely moving mice; format: in vivo
Method: (§1) All in vivo experiments were performed in adult mice (>6 weeks old). For the photometry and microdialysis experiments, which were carried out in Florida, male C57BL/6J mice from The Jackson Laboratory (Bar Harbor, ME, USA) were group-housed in polycarbonate cages (GM500, Tecniplast, Buguggiate, Italy) with lights on from 7 a.m. to 7 p.m. Food and water were provided ad libitum. Photometry and microdialysis experiments were performed in accordance with a protocol approved by the Institutional Animal Care and Use Committee at Florida Atlantic University. For the behavioral experiments, which were carried out in Vienna, C57BL/6N mice from Charles River (Sulzfeld, Germany) were group-housed in polycarbonate cages with lights on from 7 a.m. to 7 p.m. Food and water were provided ad libitum. Behavioral experiments were performed in accordance with a protocol approved by the Austrian national ethical committee on animal care and use (Bundesministerium für Wissenschaft und Forschung: BMWFW-66.009/0016-WF/V/3b/2015). All animal procedures were conducted in agreement with the ARRIVE guidelines and the U.K. Animal (Scientific Procedures) Act, 1986, and associated guidelines, EU Directive 2010/63/EU for animal experiments. Mice were given at least 1 week to acclimate before being used in any experiments.
Mice were anesthetized with isoflurane (5% induction, 2% maintenance) and placed into a stereotaxic frame (Kopf Instruments, Tujunga, CA, USA) oriented in the flat skull position. Ophthalmic ointment was applied to prevent drying of the eyes. Ketoprofen (10 mg kg^−1) was administered subcutaneously (s.c.), whereas bupivacaine and lidocaine were administered locally (s.c.; 100 µl of sterile saline containing 0.05% bupivacaine and 0.2% lidocaine) to the surgical site atop the head. A midline incision was made through the skin on the dorsal surface of the head to expose the skull. Fascia was removed, coordinates for the NAc were determined relative to bregma: anterior/posterior = 1.54 mm; medial/lateral = 0.7 mm; dorsal/ventral = −4.1 mm. A 1 mm burr hole was drilled through the skull. […] For the mice used for fiber photometry, 4*10^12 genome copies of AAV9-hSyn-5-HT2h or 10^10 genome copies of AAV-hSyn-DA2m were delivered into the NAc at an infusion rate of 100 nl min^−1 (total volume of 1 µl) using a 34-gauge needle attached to a 10 µl Nanofil microsyringe (Hamilton, Reno, NV, USA), as previously described. Following injection of the virus, an optical fiber was lowered through the burr hole and secured with glass ionomer cement. Three 1.6 mm screws (00-96X1/16 39052, Plastics One Inc., Roanoke, VA, USA) were affixed to the skull to support a cement stage that was created to secure the implanted guide cannulae or optical fiber. Mice were singly housed following surgery and allowed 6 days of recovery for the microdialysis experiments or 21 days for the photometry experiments. Food and water were available ad libitum.
To monitor light emitted from the G-protein coupled receptor-activation-based 5-HT (GRAB5-HT) and DA (GRABDA) sensors, fiber photometry was performed as described. Briefly, a light emitting diode (465 nm) (CLED_465, Doric Lenses, Quebec, QC, Canada), reflected through a dichroic mirror, was coupled to an optical fiber (200 µm core/225 cladding diameter; Thorlabs, Newton, NJ, USA) that was glued to a metal ferrule (Doric Lenses, Quebec, QC, Canada) and implanted into the NAc as described above. Emitted, band-pass filtered light (500–550 nm, FMC6, Doric Lenses, Quebec,QC, Canada) was detected with a photodetector (Newport Femtowatt silicone PIN; New Focus, San Jose, CA, USA). Data were recorded using a RZ5P lock-in amplifier (Tucker-Davis Technologies, Alachua, FL, USA) controlled with Synapse software. Sinusoidal excitation was delivered at 210 Hz by an LED driver Doric Lenses, LEDD_4) at low power mode. A demodulated signal was low-pass filtered at 6 Hz and digitized at 1017 Hz. […]

[3] = target: T1, human DAT (Homo sapiens, UniProt Q01959); test: DAT uptake inhibition assay in HEK293 cells ([3H]MPP+); format: cell-based; conditions: for DAT/SERT ratio: (1/DAT IC50)/(1/SERT IC50), higher values indicate higher DAT-selectivity
T1 construct: expressed in transfected cells
T1 sequence (Q01959 whole entry): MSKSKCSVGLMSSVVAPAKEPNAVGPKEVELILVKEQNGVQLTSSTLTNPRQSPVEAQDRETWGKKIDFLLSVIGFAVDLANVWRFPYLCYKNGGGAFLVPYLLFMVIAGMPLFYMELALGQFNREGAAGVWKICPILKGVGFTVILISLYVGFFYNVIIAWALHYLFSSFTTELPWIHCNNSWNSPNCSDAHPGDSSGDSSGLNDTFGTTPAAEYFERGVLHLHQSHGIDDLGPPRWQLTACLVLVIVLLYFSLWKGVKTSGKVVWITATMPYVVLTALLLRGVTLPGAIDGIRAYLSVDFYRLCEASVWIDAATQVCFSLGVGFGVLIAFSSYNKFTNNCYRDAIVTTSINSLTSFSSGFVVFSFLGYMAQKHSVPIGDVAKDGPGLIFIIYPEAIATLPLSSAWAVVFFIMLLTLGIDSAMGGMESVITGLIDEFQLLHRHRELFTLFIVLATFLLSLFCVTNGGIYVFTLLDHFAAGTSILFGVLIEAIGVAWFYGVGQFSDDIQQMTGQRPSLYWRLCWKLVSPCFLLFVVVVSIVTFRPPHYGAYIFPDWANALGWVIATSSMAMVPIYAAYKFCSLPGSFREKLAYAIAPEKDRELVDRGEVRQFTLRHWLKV
Method: (§2) Human embryonic kidney 293 (HEK293) cells stably expressing the human isoforms of either DAT or SERT were maintained in Dulbecco’s Modified Eagle Medium (DMEM), supplemented with 10% fetal calf serum at a subconfluent state in humidified atmosphere (5% CO2, 37 °C).
(§3) Uptake inhibition assays were performed as described earlier. Briefly, HEK293 cells stably expressing human SERT or DAT were seeded onto poly- D-lysine (PDL) coated 96-well plates (40,000 cells well^−1) the day before an experiment. Prior to the uptake inhibition assay, DMEM was replaced with Krebs-HEPES buffer (KHB, 25 mM HEPES, 120 mM NaCl, 5 mM KCl, 1.2 mM CaCl2, 1.2 mM MgSO4, and 5 mM D-glucose, pH 7.3) and the cells were preincubated with test drugs for 5 min at room temperature. Uptake assays were initiated by adding 20 nM [^3H]MPP^+ to DAT cells or 100 nM [^3H]5-HT to SERT cells. After 180 s (DAT) or 60 s (SERT), the tritiated substrate was removed by aspiration. Cells were washed once with ice-cold KHB, then lysed in 1% sodium dodecyl sulfate (SDS) and subjected to liquid scintillation counting to quantify tritium accumulated in each sample. Non-specific uptake was determined in the presence of mazindol (1 µM) for DAT or paroxetine (1 µM) for SERT and subtracted throughout.

[4] = target: T2, human SERT (Homo sapiens, UniProt P31645); test: [3H]5-HT release assay in HEK293 cells (superfusion); format: cell-based; conditions: 10 µM, SERT-expressing HEK293 cells
T2 construct: expressed in transfected cells
T2 sequence (P31645 whole entry, the tested form may be a part): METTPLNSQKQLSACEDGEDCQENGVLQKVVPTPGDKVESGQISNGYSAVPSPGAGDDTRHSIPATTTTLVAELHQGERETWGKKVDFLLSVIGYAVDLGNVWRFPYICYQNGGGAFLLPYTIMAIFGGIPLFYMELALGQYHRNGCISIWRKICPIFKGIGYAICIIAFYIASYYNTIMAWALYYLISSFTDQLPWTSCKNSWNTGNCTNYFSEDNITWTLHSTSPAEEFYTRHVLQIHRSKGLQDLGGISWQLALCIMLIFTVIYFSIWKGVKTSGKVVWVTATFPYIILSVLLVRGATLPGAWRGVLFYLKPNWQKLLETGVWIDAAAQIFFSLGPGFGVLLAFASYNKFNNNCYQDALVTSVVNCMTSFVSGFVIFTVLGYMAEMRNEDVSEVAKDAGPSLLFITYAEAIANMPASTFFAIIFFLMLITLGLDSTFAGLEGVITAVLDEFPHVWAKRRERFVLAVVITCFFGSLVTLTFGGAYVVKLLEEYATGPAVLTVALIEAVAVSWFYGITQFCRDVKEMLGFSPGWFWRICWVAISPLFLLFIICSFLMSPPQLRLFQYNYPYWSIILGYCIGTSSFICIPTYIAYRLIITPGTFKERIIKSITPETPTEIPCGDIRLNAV
Method: HEK293 cells stably expressing SERT were seeded onto PDL-coated glass coverslips (5 mm diameter) that were placed into 96-well plates at a density of 40,000 cells per well the day before the experiment. Cells were preloaded with [^3H]5-HT (0.4 µM, 20 min at 37 °C). Subsequently, the cells were transferred into small chambers with a total volume of 200 µl and superfused with KHB at a flow rate of 0.7 ml per min for 40 min to establish a stable baseline before the collection of 2-min fractions was initiated. For each experiment, three basal fractions were collected before the cells were exposed to various concentrations (given in the figure legends) of the test drugs for five fractions. Subsequently, the cells were superfused with 1% SDS for three final fractions that served to determine the total amount of radioactivity present within the cells at the end of each experimental run. The amount of tritium within each fraction was determined by liquid scintillation counting, and release was expressed as percentage of radioactivity released in relation to the total radioactivity present at the beginning of that fraction. Observations from superfusion experiments were excluded in case of premature exposure to SDS.

[5] = tested on: C57BL/6N mice; test: Forced-swim test (FST); format: in vivo; conditions: for immobility time in the FST versus vehicle: mice
Method: as §1
(§4) For behavioral assays, animals were assigned to treatment groups and injected with test drugs by an unblinded observer.
The FST was performed as previously described. In brief, mice were placed for 6 min in a beaker (diameter: 19 cm, height: 23 cm), halfway filled with water (22–23 °C), and the immobility time was quantified using the software Videotrack (Viewpoint, Champagne au Mont d’Or, France). Immobility was defined as the absence of any movement, except for those required to keep the head above the water. The time spent immobile during the final 4 min of the test was used as a measure of behavioral despair. Animal sample size was confirmed using a post hoc analysis of the achieved power using G*Power3.1 [29]. Using a significance level (α) of 0.05 and an effect size f = 2.5 and a sample size of 6 animals/group we achieved the commonly accepted statistical power (1−β) of 0.8.

[6] = target: T2, human SERT; test: SERT uptake inhibition assay in HEK293 cells ([3H]5-HT); format: cell-based
Method: as §2, §3

[7] = tested on: rat brain synaptosomes; design: method as in PMID 26738428; conditions: cited from earlier work
[8] = tested on: C57BL/6N mice; test: Open-field test; format: in vivo; conditions: for horizontal locomotor activity (total distance traveled) in the open field test: 1 h
Method: as §1, §4
Mice were placed into an open field arena (27.3 × 27.3 × 27.3 cm) surrounded by infrared beams to track movements. The total distance traveled over 1 h was recorded using Activity Monitor (Med Associates Inc., St. Albans, VT, USA) and interpreted as a measure of the psychostimulant effects. Animal sample size was confirmed using a post hoc analysis of the achieved power using G*Power3.1 [29]. Using a significance level (α) of 0.05 and an effect size f = 1.92 and a sample size of 7.5 animals (5–10)/group we achieved the commonly accepted statistical power (1−β) of 0.8.

[9] = tested on: VMATs; test: VMAT uptake inhibition assay in PC12 cells; format: cell-based; conditions: all at 30 µM, relative to inhibition by 30 µM reserpine
Method: VMAT uptake inhibition assays were conducted as previously described, with some modifications. In brief, […] PC12 cells per well were seeded in 24-well plates the day before experimentation. The cells were pretreated with 100 nM nisoxetine and mazindol to inhibit non-specific binding. PC12 cells were then preincubated with 200 µM digitonin to permeabilize membranes and were kept at room temperature on a plate shaker at low velocity for 30 min. Cells were treated with test drugs and shaken for another 10 min. Tritiated substrate (0.05 µM [^3H]5-HT) was added, and the cells incubated on the plate shaker for 30 min. To terminate uptake, cells were transferred into 1.5 ml Eppendorf tubes, centrifuged at 5000 rpm for 5 min. The supernatant was aspirated, cells were washed with cold KHB, recentrifuged and lysed with 200 µl SDS. The solutions were transferred into vials containing 2 ml scintillation cocktail and radioactivity was determined via beta-scintillation counting (Perkin Elmer, Waltham, MA, USA). For analysis, inhibitory potency of test drugs was normalized to uptake inhibition caused by the potent VMAT inhibitor reserpine.

[10] = indicated doses (1, 5 and 10 mg kg-1) intraperitoneal

Compound	extracellular 5-HT in the NAc (GRAB5-HT fluorescence) ([2]; 10 mg kg-1 intraperitoneal)	IC50 [3] [µM]	DAT/SERT ratio [3]	effect on release of preloaded [3H]5-HT [4]	immobility time in the FST versus vehicle ([5]; 5 mg kg-1 intraperitoneal)	immobility time in the FST versus vehicle ([5]; 10 mg kg-1 intraperitoneal)	IC50 [6] [µM]	other results
CNC(C)C(=O)c1ccc(C)cc1 (stereo not shown) [4-MMC, 4-methyl-N-methylcathinone]								potency to inhibit VMAT2-mediated uptake, lower than that of MDMA [1]: 10 fold
CCN[C@@H](C)Cc1cccc(C(F)(F)F)c1 [D-FEN, d-fenfluramine, reference compound]	increased 5-HT when compared to saline							GRAB5-HT basal fluorescence in the NAc ([2]; 3 and 10 mg kg-1 intraperitoneal): increased the basal fluorescence in a dose-dependent manner; relative GRAB5-HT fluorescence at peak versus saline ([2]; t = 700-900 s post injection, drug alone, D-FEN 10, S-4-MC 5, S-4-TFMMC 10 mg kg-1 intraperitoneal): Significant effects
Cc1ccc(C(=O)[C@@H](C)N)cc1 [R-4-MC, 4-methylcathinone]		9.6	19.3	did not alter basal release of 5-HT	had no effect	had no effect	186	extracellular 5-HT in the NAc (GRAB5-HT fluorescence) ([2]; 5 mg kg-1 intraperitoneal): no effect on 5-HT was observed; immobility time in the FST versus vehicle ([5]; 1 mg kg-1 intraperitoneal): had no effect; 5-HT release efficacy in rat brain synaptosomes [7]: fully efficacious 5-HT releaser
CN[C@H](C)C(=O)c1ccc(C)cc1 [R-4-MMC, 4-methyl-N-methylcathinone]		12.5	6.2	did not alter basal release of 5-HT		significantly reduced immobility time	77.1	horizontal locomotor activity (total distance traveled) in the open field test ([8]; 10 mg kg-1 intraperitoneal): significantly affected horizontal locomotor activity
CN[C@H](C)C(=O)c1ccc(C(F)(F)F)cc1 [R-4-TFMMC, 4-trifluoromethyl-N-methylcathinone]	no effect on 5-HT was observed	153	0.15	did not alter basal release of 5-HT	had no effect	had no effect	22.6	immobility time in the FST versus vehicle ([5]; 1 mg kg-1 intraperitoneal): had no effect
CN[C@H](C)C(=O)c1ccccc1 [R-MC, N-methylcathinone]		10.6	90.7	did not alter basal release of 5-HT			964	
CN[C@@H](C)C(=O)c1ccc(C)cc1 [S-4-MMC, 4-methyl-N-methylcathinone]		10.3	1.06	robustly increased	significantly reduced immobility time versus vehicle	significantly reduced immobility time versus vehicle	10.9	vertical counts in the open field test [8, 10]: affected vertical counts; horizontal locomotor activity (total distance traveled) in the open field test [8, 10]: did not differ from vehicle; time spent immobile in the FST, male and female mice ([5]; 5 mg kg-1 intraperitoneal, male and female mice): significantly reduced the time spent immobile regardless of sex; inhibition of VMAT-mediated transport compared to MDMA [9]: no difference
CN[C@@H](C)C(=O)c1ccccc1 [S-MC, N-methylcathinone]		9.1	43.2	little effect			393	
CNCCC(Oc1ccc(C(F)(F)F)cc1)c1ccccc1 (stereo not shown) [fluoxetine, Fluoxetine hydrochloride, reference compound]	without effect							
